Reference: ChEMBL document CHEMBL1124616, “Hybrid cholecystokinin (CCK) antagonists: new implications in the design and modification of CCK antagonists” (J Med Chem, 1989)

Assays:
[1] = target: T1, Cholecystokinin receptor type A (Cavia porcellus, UniProt Q63931); assay: Compound was evaluated for the binding affinity against Cholecystokinin type A receptor in pancreatic acinar cell
T1 sequence (Q63931 whole entry): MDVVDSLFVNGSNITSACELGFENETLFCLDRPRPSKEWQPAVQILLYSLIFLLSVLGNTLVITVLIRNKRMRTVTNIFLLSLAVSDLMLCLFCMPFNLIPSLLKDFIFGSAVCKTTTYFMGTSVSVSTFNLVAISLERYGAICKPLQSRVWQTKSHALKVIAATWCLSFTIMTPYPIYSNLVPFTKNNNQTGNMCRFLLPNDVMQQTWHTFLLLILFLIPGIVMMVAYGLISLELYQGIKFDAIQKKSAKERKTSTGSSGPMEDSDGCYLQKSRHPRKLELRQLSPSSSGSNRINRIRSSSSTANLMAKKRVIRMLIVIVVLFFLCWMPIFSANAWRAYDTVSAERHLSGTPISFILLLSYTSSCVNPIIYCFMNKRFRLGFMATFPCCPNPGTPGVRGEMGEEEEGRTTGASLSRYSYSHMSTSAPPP

Cavia porcellus = organism: Cavia porcellus; assay: Compound was evaluated for the ability to inhibit CCK-stimulated amylase release in pancreatic acinar cells of guinea pig; assay type: functional
[2] = target: T2, Gastrin/cholecystokinin type B receptor (Cavia porcellus, UniProt H0VZC5); assay: Compound was evaluated for the binding affinity against Cholecystokinin type A receptor in cortical cells.; assay type: cell-based
T2 sequence (H0VZC5 1-426): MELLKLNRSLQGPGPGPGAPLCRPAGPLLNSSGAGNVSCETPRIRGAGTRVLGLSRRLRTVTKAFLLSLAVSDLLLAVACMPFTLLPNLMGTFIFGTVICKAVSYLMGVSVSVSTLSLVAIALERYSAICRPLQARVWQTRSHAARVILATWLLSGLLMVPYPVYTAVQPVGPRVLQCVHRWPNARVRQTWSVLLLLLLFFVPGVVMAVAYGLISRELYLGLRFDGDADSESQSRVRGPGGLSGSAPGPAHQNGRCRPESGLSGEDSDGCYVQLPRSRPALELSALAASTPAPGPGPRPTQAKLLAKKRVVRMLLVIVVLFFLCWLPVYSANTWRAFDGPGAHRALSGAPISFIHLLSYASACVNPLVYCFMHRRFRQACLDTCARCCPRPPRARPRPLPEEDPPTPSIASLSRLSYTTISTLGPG

[3] = target: T1, Cholecystokinin receptor type A; assay: Compound was evaluated for the binding affinity against CCK A receptor in pancreatic acinar cell
[4] = target: T2, Gastrin/cholecystokinin type B receptor; assay: Compound was evaluated for the binding affinity against CCK A receptor in cortical cells.; assay type: cell-based

Row | SMILES | IC50 [1] | IC50 [2] | IC50 [3] | IC50 [4] | IC50 (Cavia porcellus)
1 | CCCCCN(CCCCC)C(=O)[C@@H](CCC(=O)O)NC(=O)c1cc2ccccc2[nH]1 |  |  |  |  | 36 nM
2 | CCCCCN(CCCCC)C(=O)[C@@H](CCC(=O)O)NC(=O)c1cnc2ccccc2c1 |  |  |  |  | 16 nM
3 | CCCCCN(CCCCC)C(=O)[C@H](CCC(=O)O)NC(=O)c1cc2ccccc2[nH]1 |  |  |  |  | 590 nM
4 | CCCCCN(CCCCC)C(=O)[C@@H](CCC(=O)O)NC(=O)c1ccc(Cl)c(Cl)c1 |  |  |  |  | 180 nM

Further lines, with some results ahead:

Row | IC50 [1] | IC50 [2] | IC50 [3] | IC50 [4] | SMILES | IC50 (Cavia porcellus)
5 | 320 nM | 11000 nM |  |  | CCCCCN(CCCCC)C(=O)[C@@H](CCC(=O)O)NC(=O)c1cccc2ccccc12 | 280 nM
6 | 63 nM |  |  |  | CCCCCN(CCCCC)C(=O)[C@@H](CCC(=O)O)NC(=O)c1ccc2ccccc2n1 | 
7 |  |  | 4900 nM |  | CCCCCN(CCCCC)C(=O)[C@H](CCC(=O)O)NC(=O)c1ccc(Cl)c(Cl)c1 | 11000 nM
8 |  | 32000 nM |  |  | CCCCCN(CCCCC)C(=O)[C@@H](CCC(=O)O)NC(=O)c1c[nH]c2ccccc12 | 830 nM
9 |  |  | 31 nM | 11000 nM | CCCCCN(CCCCC)C(=O)[C@@H](CCC(=O)O)NC(=O)c1ccc2ncccc2c1 | 65 nM
10 | 12 nM | 4200 nM |  |  | CCCCCN(CCCCC)C(=O)[C@@H](CCC(=O)O)NC(=O)c1ccc2ccccc2c1 [AMIGLUMIDE] | 36 nM
